Values after ≈ are worked out from the molar mass of the structure shown.
Tests used:
[1] = tested on: Streptococcus pyogenes; test: In vivo activity, experimentally infected mice (ED50); conditions: Streptococcus pyogenes infection; doses administered subcutaneously to mice 1 and 4 hours postinfection
[2] = tested on: Streptococcus pneumoniae Park 1; type: cell-based
Protocol: (§1) The formula I compounds have in vitro and in vivo activity against Gram-positive pathogenic bacteria. The MIC's were determined using a standard agar-dilution assays.

[3] = tested on: Staphylococcus aureus S13E; type: cell-based
Protocol: as §1

[4] = tested on: Enterococcus faecium X66; test: MIC, standard agar-dilution assay; type: cell-based
Protocol: as §1
^b Formerly Streptococcus faecium X66

[5] = tested on: Escherichia coli EC14; test: MIC, standard agar-dilution assay; type: cell-based
Protocol: as §1

[6] = tested on: Staphylococcus aureus NRRL X1.1; test: MIC, standard agar-dilution assay; type: cell-based
Protocol: as §1

[7] = tested on: Escherichia coli TEM; test: MIC, standard agar-dilution assay; type: cell-based
Protocol: as §1

[8] = tested on: Staphylococcus aureus X400; test: MIC, standard agar-dilution assay; type: cell-based
Protocol: as §1

[9] = tested on: Klebsiella pneumoniae X26; test: MIC, standard agar-dilution assay; type: cell-based
Protocol: as §1

[10] = tested on: Haemophilus influenzae 76; test: MIC, standard agar-dilution assay; type: cell-based
Protocol: as §1

[11] = tested on: Staphylococcus epidermidis 222; test: MIC, standard agar-dilution assay; type: cell-based
Protocol: as §1

[12] = tested on: Streptococcus pyogenes C203; test: MIC, standard agar-dilution assay; type: cell-based
Protocol: as §1

[13] = tested on: Staphylococcus epidermidis EPI270; test: MIC, standard agar-dilution assay; type: cell-based
Protocol: as §1

[14] = tested on: Klebsiella pneumoniae X68; test: MIC, standard agar-dilution assay; type: cell-based
Protocol: as §1

[15] = tested on: Staphylococcus aureus V41; test: MIC, standard agar-dilution assay; type: cell-based
Protocol: as §1

[16] = tested on: Klebsiella pneumoniae KAE; test: MIC, standard agar-dilution assay; type: cell-based
Protocol: as §1

[17] = tested on: Haemophilus influenzae C.L.; test: MIC, standard agar-dilution assay; type: cell-based
Protocol: as §1

[18] = tested on: Escherichia coli N10; test: MIC, standard agar-dilution assay; type: cell-based
Protocol: as §1

[19] = tested on: Enterococcus faecalis 2041; test: MIC, standard agar-dilution assay; type: cell-based
Protocol: as §1
^c Formerly Streptococcus faecalis 2041

[20] = tested on: Streptococcus pneumoniae; test: In vivo activity, experimentally infected mice (ED50); conditions: Streptococcus pneumoniae infection; doses administered subcutaneously to mice 1 and 4 hours postinfection
[21] = tested on: Staphylococcus aureus; test: as above; conditions: Staphylococcus aureus infection; doses administered subcutaneously to mice 1 and 4 hours postinfection

SMILES	ED50 [1]	MIC [2]	MIC [3]	MIC [4]	MIC [5]	MIC [6]	MIC [7]	MIC [8]	MIC [9]	MIC [10]	MIC [11]	MIC [12]	MIC [13]	MIC [14]	MIC [15]	MIC [16]	MIC [17]	MIC [18]	MIC [19]	further results
CCCCCCC(=O)NC1(C)CC(OC2c3ccc(c(Cl)c3)Oc3cc4cc(c3OC3OC(CO)C(O)C(O)C3OC3CC(C)(N)C(O)C(C)O3)Oc3ccc(cc3Cl)C(O)C(NC(=O)C(CC(C)C)NC)C(=O)NC(CC(N)=O)C(=O)NC4C(=O)NC3C(=O)NC2C(=O)NC(C(=O)O)c2cc(O)cc(O)c2-c2cc3ccc2O)OC(C)C1O (stereo not drawn) [Compound 69]	< 0.62 mg/kg/2	.5 µg/mL (≈ 0.293 µM)	2 µg/mL (≈ 1.17 µM)	2 µg/mL (≈ 1.17 µM)	> 128 µg/mL	1 µg/mL (≈ 0.587 µM)	> 128 µg/mL	4 µg/mL (≈ 2.35 µM)	> 128 µg/mL	> 128 µg/mL	2 µg/mL (≈ 1.17 µM)	1 µg/mL (≈ 0.587 µM)	8 µg/mL (≈ 4.69 µM)	> 128 µg/mL	2 µg/mL (≈ 1.17 µM)	> 128 µg/mL	> 128 µg/mL	> 128 µg/mL	1 µg/mL (≈ 0.587 µM)	
CCCCCNC1(C)CC(OC2c3ccc(cc3)Oc3cc4cc(c3OC3OC(CO)C(O)C(O)C3O)Oc3ccc(cc3Cl)C(O)C(NC(=O)C(CC(C)C)NC)C(=O)NC(CC(N)=O)C(=O)NC4C(=O)NC3C(=O)NC2C(=O)NC(C(=O)O)c2cc(O)cc(O)c2-c2cc3ccc2O)OC(C)C1O (stereo not drawn) [Compound 71]		2 µg/mL (≈ 1.35 µM)	2 µg/mL (≈ 1.35 µM)	8 µg/mL (≈ 5.39 µM)	> 128 µg/mL	2 µg/mL (≈ 1.35 µM)	> 128 µg/mL	4 µg/mL (≈ 2.69 µM)	> 128 µg/mL	> 128 µg/mL	4 µg/mL (≈ 2.69 µM)	2 µg/mL (≈ 1.35 µM)	1 µg/mL (≈ 0.673 µM)	> 128 µg/mL	2 µg/mL (≈ 1.35 µM)	> 128 µg/mL	> 128 µg/mL	> 128 µg/mL	8 µg/mL (≈ 5.39 µM)	
CCCCCNC1(C)CC(OC2c3ccc(cc3)Oc3cc4cc(c3O)Oc3ccc(cc3Cl)C(O)C(NC(=O)C(CC(C)C)NC)C(=O)NC(CC(N)=O)C(=O)NC4C(=O)NC3C(=O)NC2C(=O)NC(C(=O)O)c2cc(O)cc(O)c2-c2cc3ccc2O)OC(C)C1O (stereo not drawn) [Compound 74]		4 µg/mL (≈ 3.02 µM)	4 µg/mL (≈ 3.02 µM)	8 µg/mL (≈ 6.05 µM)	> 128 µg/mL	4 µg/mL (≈ 3.02 µM)	> 128 µg/mL	4 µg/mL (≈ 3.02 µM)	> 128 µg/mL	> 128 µg/mL	4 µg/mL (≈ 3.02 µM)	4 µg/mL (≈ 3.02 µM)	2 µg/mL (≈ 1.51 µM)	> 128 µg/mL	4 µg/mL (≈ 3.02 µM)	> 128 µg/mL	> 128 µg/mL	> 128 µg/mL	8 µg/mL (≈ 6.05 µM)	
CCCCCNC1(C)CC(OC2c3ccc(c(Cl)c3)Oc3cc4cc(c3OC3OC(CO)C(O)C(O)C3O)Oc3ccc(cc3Cl)C(O)C(NC(=O)C(CC(C)C)NC)C(=O)NC(CC(N)=O)C(=O)NC4C(=O)NC3C(=O)NC2C(=O)NC(C(=O)O)c2cc(O)cc(O)c2-c2cc3ccc2O)OC(C)C1O (stereo not drawn) [Compound 77]		.5 µg/mL (≈ 0.329 µM)	.5 µg/mL (≈ 0.329 µM)	2 µg/mL (≈ 1.32 µM)	> 128 µg/mL	.5 µg/mL (≈ 0.329 µM)	> 128 µg/mL	1 µg/mL (≈ 0.658 µM)	> 128 µg/mL	128 µg/mL (≈ 84.2 µM)	1 µg/mL (≈ 0.658 µM)	.25 µg/mL (≈ 0.165 µM)	8 µg/mL (≈ 5.27 µM)	> 128 µg/mL	.5 µg/mL (≈ 0.329 µM)	> 128 µg/mL	128 µg/mL (≈ 84.2 µM)	> 128 µg/mL	2 µg/mL (≈ 1.32 µM)	
CNC(CC(C)C)C(=O)NC1C(=O)NC(CC(N)=O)C(=O)NC2C(=O)NC3C(=O)NC(C(=O)NC(C(=O)O)c4cc(O)cc(O)c4-c4cc3ccc4O)C(OC3CC(C)(NCc4ccccc4)C(O)C(C)O3)c3ccc(c(Cl)c3)Oc3cc2cc(c3O)Oc2ccc(cc2Cl)C1O (stereo not drawn) [Compound 79]	0.71 mg/kg/2	.25 µg/mL (≈ 0.182 µM)	.25 µg/mL (≈ 0.182 µM)	1 µg/mL (≈ 0.726 µM)	> 128 µg/mL	.25 µg/mL (≈ 0.182 µM)	> 128 µg/mL	.5 µg/mL (≈ 0.363 µM)	> 128 µg/mL	> 128 µg/mL	.5 µg/mL (≈ 0.363 µM)	.25 µg/mL (≈ 0.182 µM)		> 128 µg/mL	.25 µg/mL (≈ 0.182 µM)	> 128 µg/mL	> 128 µg/mL	> 128 µg/mL	1 µg/mL (≈ 0.726 µM)	ED50 [20]: 0.71 mg/kg/2; ED50 [21]: > 1.0 mg/kg/2

Reference: patent US5591714A, “Derivatives of A82846” (priority 1994, dated 1997)
